Measurements taken from US20260250318A1, “COMPOSITIONS AND METHODS FOR CROSSING THE BLOOD BRAIN BARRIER” (VOYAGER THERAPEUTICS, INC., priority 2022, published 2026).

What was measured:
Details in all cases: synthetic library passage 3, intravenous, relative to wild-type AAV9
brain [1] = experiment: NGS fold enrichment of synthetic library (passage 3) in BALB/c mice, first cross-species screen; assay type: in vivo
Outline: (§1)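 Synthetic capsid library (passage 3) was given intravenously […] to NHPs aged 2-4 years and to BALB/c and C57Bl/6 mice (n=3 each, 6-8 weeks). After about 28 days in vivo, tissue RNA was RT-PCR amplified and NGS-sequenced; values are fold enrichment per variant relative to wild-type AAV9.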

brain [2] = experiment: NGS fold enrichment of synthetic library (passage 3) in C57Bl/6 mice, first cross-species screen; assay type: in vivo
Outline: as §1

[3] = tested on: brain, spinal cord, and DRG of the NHPs; experiment: NGS fold enrichment of synthetic library (passage 3) in NHPs, first cross-species screen; assay type: in vivo, cynomolgus macaques (Macaca fascicularis)
Outline: as §1

[4] = RNA from brain of BALB/c mice, NGS
[5] = RNA from brain of C57Bl/6 mice, NGS
[6] = RNA from spinal cord of NHPs, NGS

Sequence	Fold enrichment over AAV9 in the brain of Mice (BALB/c) (brain [1]; RNA NGS, brain of BALB/c mice)	Fold enrichment over AAV9 in the brain of Mice (C57Bl/6) (brain [2]; RNA NGS, brain of C57Bl/6 mice)	Fold enrichment over AAV9 in the brain of NHPs ([3]; RNA NGS, brain of NHPs)	Fold enrichment over AAV9 in the spinal cord of NHPs ([3]; RNA NGS, spinal cord of NHPs)	Fold enrichment over AAV9 in the brain of Mice (BALB/c) (brain [1]; [4])	Fold enrichment over AAV9 in the brain of Mice (C57Bl/6) (brain [2]; [5])	Fold enrichment over AAV9 in the brain of NHPs ([3]; RNA from brain of NHPs, NGS)	Fold enrichment over AAV9 in the spinal cord of NHPs [3, 6]
GSGHSPLPQQNQQT	0.247 fold	0.387 fold	1.562 fold	0.556 fold				
GSDQNQQLGYSKQT					0.660 fold	0.853 fold	1.283 fold	0.000 fold
GNGFSSASGQNQQT	0.182 fold	0.240 fold	2.493 fold	0.772 fold				
GSGQGPQERGNQQT	0.313 fold	0.846 fold	1.702 fold	1.269 fold				
GRGQNQQHTGLATT	0.691 fold	1.134 fold	1.650 fold	6.174 fold				
GQIVQNPSGQNQQT	0.635 fold	1.446 fold	3.133 fold	0.406 fold				
GVHSLTPSGQNQQT	0.215 fold	0.475 fold	1.687 fold	4.104 fold				
GSRDGHTVGQNQQT	0.661 fold	0.495 fold	1.928 fold	7.089 fold				
GSLSSHGVGQNQQT	0.804 fold	1.218 fold	1.911 fold	7.498 fold				
GPGLPNHSGQNQQT	0.659 fold	1.197 fold	2.486 fold	1.992 fold				
GSGQNQQTRLTDLT	0.776 fold	0.910 fold	2.046 fold	8.470 fold				
GSGQIRQLVDNQQT	0.272 fold	0.314 fold	1.657 fold	5.529 fold				
GSGQNQQTPGAHKT	0.277 fold	0.957 fold	1.105 fold	3.827 fold				
GLGYPGSSGQNQQT	0.577 fold	0.929 fold	1.763 fold	7.090 fold				
GSGSHHASRQNQQT	0.584 fold	3.073 fold	1.712 fold	0.451 fold				
GSGQNQQTMDHNRT	0.440 fold	0.642 fold	2.130 fold	4.944 fold				

Sequence	Fold enrichment over AAV9 in the brain of Mice (BALB/c) (brain [1]; RNA NGS, brain of BALB/c mice)	Fold enrichment over AAV9 in the brain of Mice (C57Bl/6) (brain [2]; RNA NGS, brain of C57Bl/6 mice)	Fold enrichment over AAV9 in the brain of NHPs ([3]; RNA NGS, brain of NHPs)	Fold enrichment over AAV9 in the spinal cord of NHPs ([3]; RNA NGS, spinal cord of NHPs)	Fold enrichment over AAV9 in the brain of Mice (BALB/c) (brain [1]; [4])	Fold enrichment over AAV9 in the brain of Mice (C57Bl/6) (brain [2]; [5])	Fold enrichment over AAV9 in the brain of NHPs ([3]; RNA from brain of NHPs, NGS)	Fold enrichment over AAV9 in the spinal cord of NHPs [3, 6]
GRGAVMASGQNQQT	0.605 fold	0.783 fold	1.072 fold	0.923 fold				
GSGQNQQKQNHGNT	1.340 fold	1.538 fold	1.695 fold	5.349 fold				
GSGQNQQTSLQDQT	0.968 fold	0.315 fold	2.505 fold	0.500 fold				
GSGQNQQTLTASKE					1.172 fold	0.981 fold	1.333 fold	1.152 fold
GATLQVHSGQNQQT	0.545 fold	0.623 fold	2.122 fold	2.219 fold				
GSGERLHLTQNQQT	0.245 fold	0.387 fold	1.885 fold	1.456 fold				
GSGQRNPLLLNQQT	0.740 fold	0.662 fold	1.693 fold	0.144 fold				
GSGQNQQTSVYMNT	0.983 fold	0.640 fold	1.498 fold	0.613 fold				
GSGQNQQTGSSSRV					1.128 fold	0.995 fold	1.176 fold	0.580 fold
GPFGMPSSGQNQQT	0.560 fold	0.727 fold	2.260 fold	2.700 fold				
GSGQKQERAVSKQT					0.732 fold	1.174 fold	1.277 fold	0.000 fold
GSGMLTHTLQNQQT	0.199 fold	0.496 fold	2.246 fold	2.272 fold				
GSPGVSPSGQNQQT					1.160 fold	0.853 fold	1.178 fold	3.006 fold
GMDHSRPSGQNQQT	0.648 fold	0.918 fold	1.627 fold	3.976 fold				
GSGLPVLSGQNQQT	0.210 fold	0.631 fold	3.100 fold	4.149 fold				
GSGQNQQLKENRST	1.118 fold	1.149 fold	2.765 fold	0.062 fold				
